Experimental data reported in patent US7615643B2 (SmithKline Beecham Corporation, priority 2006, dated 2009).

Target: T1, PLK1 (Homo sapiens, UniProt P53350)
T1 construct: PLK kinase domain (amino acids 21-346 preceded by MKKGHHHHHHD); made in house; host or cells: baculovirus infected T. ni cells
Experiment: Assay for inhibition of PLK1 (SPA kinase assay)
Type: biochemical
Details: 1 μM ATP, 2 nM PLK1 kinase domain, read-out: PLK1 pIC50 (converted)
Protocol: I. Assay for Inhibition of PLK1
A. Preparation of 6× N-terminal His-tagged PLK Kinase Domain
6× N-terminal His-tagged PLK kinase domain (amino acids 21-346 preceded by MKKGHHHHHHD) SEQ ID: No. 1. was prepared from baculovirus infected T. ni cells under polyhedrin promoter control. All procedures were performed at 4° C. Cells were lysed In 50 mM HEPES, 200 mM NaCl, 50 mM imidazole, 5% glycerol; pH 7.5. The homogenate was centrifuged at 14K rpm in a SLA-1500 rotor for 1 hr and the supernatant filtered through a 1.2 micron filter. The supernatant was loaded onto a Nickel chelating Sepharose (Amersham Pharmacia) column and washed with lysis buffer. Protein was eluted using 20%, 30% and 100% buffer B steps where buffer B was 50 mM HEPES, 200 mM NaCl, 300 mM imidazole, 5% glycerol; pH 7.5. Fractions containing PLK were determined by SDS-PAGE. Fractions containing PLK were diluted five-fold with 50 mM HEPES, 1 mM DTT, 5% glycerol; pH 7.5, then loaded on an SP Sepharose (Amersham Pharmacia) column. After washing the column with 50 mM HEPES, 1 mM DTT, 5% glycerol; pH 7.5, PLK was step eluted with 50 mM HEPES, 1 mM DTT, 500 mM NaCl; 5% glycerol; pH 7.5. PLK was concentrated using a 10 kDa molecular weight cutoff membrane and then loaded onto a Superdex 200 gel filtration (Amersham Pharmacia) column equilibrated in 25 mM HEPES, 1 mM DTT, 500 mM NaCl, 5% glycerol; pH 7.5. Fractions containing PLK were determined by SDS-PAGE. PLK was pooled, aliquoted and stored at −80° C. Samples were quality controlled using mass spectrometry, N-terminal sequencing and amino acid analysis.
B. Enzyme Activity +/− Inhibitors was Determined as Follows:
All measurements were obtained under conditions where signal production increased linearly with time and enzyme. Test compounds were added to white 384-well assay plates (0.1 μL for 10 μL and some 20 μL assays, 1 μL for some 20 μL assays) at variable known concentrations in 100% DMSO. DMSO (1-5% final, as appropriate) and EDTA (65 mM in reaction) were used as controls. Reaction Mix was prepared as follows at 22° C.: • 25 mM HEPES, pH 7.2 • 15 mM MgCl2 • 1 μM ATP • 0.05 μCi/well ^33P-γ ATP (10 Ci/mMol) • 1 μM substrate peptide (Biotin-Ahx-SFNDTLDFD) SEQ ID:No. 2. • 0.15 mg/mL BSA • 1 mM DTT • 2 nM PLK1 kinase domain (added last)
Reaction Mix (10 or 20 μL) was quickly added to each well immediately following addition of enzyme via automated liquid handlers and incubated 1-1.5 h at 22° C. The 20 μL enzymatic reactions were stopped with 50 μL of stop mix (50 mM EDTA, 4.0 mg/mL Streptavidin SPA beads in Standard Dulbecco's PBS (without Mg^2+ and Ca^2+), 50 μM ATP) per well. The 10 μL reactions were stopped with 10 μL of stop mix (50 mM EDTA, 3.0 mg/mL Streptavidin-coupled SPA imaging Beads (“LeadSeeker”) in Standard Dulbecco's PBS (without Mg^2+ and Ca^2+), 50 μM ATP) per well. Plates were sealed with clear plastic seals, spun at 500×g for 1 min or settled overnight, and counted in Packard TopCount for 30 seconds/well (regular SPA) or imaged using a Viewlux imager (LeadSeeker SPA). Signal above background (EDTA controls) was converted to percent Inhibition relative to that obtained in control (DMSO-only) wells.

T1 sequence (P53350 21-346): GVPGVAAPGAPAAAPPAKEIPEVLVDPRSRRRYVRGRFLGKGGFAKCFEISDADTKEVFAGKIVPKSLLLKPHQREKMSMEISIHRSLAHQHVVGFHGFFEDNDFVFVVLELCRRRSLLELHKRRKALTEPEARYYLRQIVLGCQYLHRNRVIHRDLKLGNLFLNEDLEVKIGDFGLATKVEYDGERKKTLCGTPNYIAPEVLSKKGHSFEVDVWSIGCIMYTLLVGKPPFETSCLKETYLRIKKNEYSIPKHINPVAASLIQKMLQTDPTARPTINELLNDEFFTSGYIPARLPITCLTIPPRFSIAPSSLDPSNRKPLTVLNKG

| Structure (SMILES) | IC50 |
| --- | --- |
| CC(Oc1cc(-n2cnc3cc(-c4cnn(C)c4)ccc32)sc1C(N)=O)c1cccc(OC2CCNCC2)c1 (racemic) [Example 73, (+/−)-5-[5-(1-Methyl-1H-pyrazol-4-yl)-1H-benzimidazol-1-yl]-3-({1-[3-(4-piperidinyloxy)phenyl]ethyl}oxy)-2-thiophenecarboxamide] | < 100 nM |
| CC(Oc1cc(-n2cnc3cc(-c4cnn(C)c4)ccc32)sc1C(N)=O)c1cccc(OC2CCN(C)CC2)c1 (racemic) [Example 74, (+/−)-3-[(1-{3-[(1-methyl-4-piperidinyl)oxy]phenyl}ethyl)oxy]-5-[5-(1-methyl-1H-pyrazol-4-yl)-1H -benzimidazol-1-yl]-2-thiophenecarboxamide] | < 100 nM |
| COc1cc2ncn(-c3cc(O[C@H](C)c4cccc(NCC5CCNCC5)c4Cl)c(C(N)=O)s3)c2cc1OC [Example 1, 5-[5,6-Bis(methyloxy)-1H-benzimidazol-1-yl]-3-[((1R)-1-{2-chloro-3-[(4-piperidinylmethyl)amino]phenyl}ethyl)oxy]-2-thiophenecarboxamide] | < 100 nM |
| COc1cc2ncn(-c3cc(O[C@H](C)c4cccc(NCC5CCN(C)CC5)c4Cl)c(C(N)=O)s3)c2cc1OC [Example 2] | < 100 nM |
| C[C@@H](Oc1cc(-n2cnc3cc(Cl)ccc32)sc1C(N)=O)c1cccc(OC2CCN(C)CC2)c1Cl [Example 3] | < 100 nM |
| C[C@@H](Oc1cc(-n2cnc3ccc(C#N)cc32)sc1C(N)=O)c1cccc(OC2CCN(C)CC2)c1Cl [Example 4, 3-((1R)-1-{2-chloro-3-[(1-methylpiperidin-4-yl)oxy]phenyl}-ethoxy)-5-(6-cyano-1H-benzimidazol-1-yl)thiophene-2-carboxamide] | < 100 nM |
| C[C@@H](Oc1cc(-n2cnc3ccc(C#N)cc32)sc1C(N)=O)c1cccc(OC2CCNCC2)c1Cl [Example 5, 3-{(1R)-1-[2-chloro-3(piperidin-4-yloxy)phenyl]ethoxy}-5-(6-cyano-1H-benzimidazol-1-yl)thiophene-2-carboxamide] | < 100 nM |
| C[C@@H](Oc1cc(-n2cnc3ccc(Br)cc32)sc1C(N)=O)c1cccc(OC2CCN(C)CC2)c1Cl [Example 6, 5-(6-Bromo-1H-benzimidazol-1-yl)-3-[((1R)-1-{2-chloro-3-[(1-methyl-4-piperidinyl)oxy]phenyl}ethyl)oxy]-2-thiophenecarboxamide] | < 100 nM |
| C[C@@H](Oc1cc(-n2cnc3ccc(Br)cc32)sc1C(N)=O)c1cccc(OC2CCNCC2)c1Cl [Example 7, 5-(6-Bromo-1H-benzimidazol-1-yl)-3-({(1R)-1-[2-chloro-3-(4-piperidinyloxy)phenyl]ethyl}oxy)-2-thiophenecarboxamide] | < 100 nM |
| C[C@@H](Oc1cc(-n2cnc3cc(Cl)ccc32)sc1C(N)=O)c1cccc(OC2CCNCC2)c1Cl [Example 8, 5-(5-Chloro-1H-benzimidazol-1-yl)-3-({(1R)-1-[2-chloro-3-(4-piperidinyloxy)phenyl]ethyl}oxy)-2-thiophenecarboxamide] | < 100 nM |
| Cc1ccc(-c2ccc3c(c2)ncn3-c2cc(O[C@H](C)c3cccc(OC4CCNCC4)c3Cl)c(C(N)=O)s2)cn1 [Example 9, 3-({(1R)-1-[2-chloro-3-(4-piperidinyloxy)phenyl]ethyl}oxy)-5-[5-(6-methyl-3-pyridinyl)-1H-benzimidazol-1-yl]-2-thiophenecarboxamide] | < 100 nM |
| Cc1ccc(-c2ccc3c(c2)ncn3-c2cc(O[C@H](C)c3cccc(OC4CCN(C)CC4)c3Cl)c(C(N)=O)s2)cn1 [Example 10, 3-[((1R)-1-{2-chloro-3-[(1-methyl-4-piperidinyl)oxy]phenyl}ethyl)oxy]-5-[5-(6-methyl-3-pyridinyl)-1H-benzimidazol-1-yl]-2-thiophenecarboxamide] | < 100 nM |
| C[C@@H](Oc1cc(-n2cnc3cc(-c4cccnc4)ccc32)sc1C(N)=O)c1cccc(OC2CCN(C)CC2)c1Cl [Example 11, 3-[((1R)-1-{2-chloro-3-[(1-methyl-4-piperidinyl)oxy]pheny}ethyl)oxy]-5-[5-(3-pyridinyl)-1H-benzimidazol-1-yl]-2-thiopnenecarboxamide] | < 100 nM |
| C[C@@H](Oc1cc(-n2cnc3cc(-c4cccnc4)ccc32)sc1C(N)=O)c1cccc(OC2CCNCC2)c1Cl [Example 12, 3-({(1R)-1-[2-chloro-3-(4-piperidinyloxy)phenyl]ethyl}oxy)-5-[5-(pyridinyl)-1H-benzimidazol-1-yl]-2-thiophenecarboxamide] | < 100 nM |
| C[C@@H](Oc1cc(-n2cnc3ccccc32)sc1C(N)=O)c1cccc(OC2CCN(C)CC2)c1Cl [Example 13, 5-(1H-benzimidazol-1-yl)-3-[((1R)-1-{2-chloro-3-[(1-methyl-4-piperidinyl)gxy]phenyl}ethyl)oxy]-2-thiophenecarboxamide] | < 100 nM |
| C[C@@H](Oc1cc(-n2cnc3ccccc32)sc1C(N)=O)c1cccc(OC2CCNCC2)c1Cl [Example 14, 5-(1H-Benzimidazol-1-yl)-3-({(1R)-1-[2-chloro-3-(4-piperidinyloxy)phenyl]ethyl}oxy)-2-thiophenecarboxamide] | < 100 nM |

Results, then the compound that gave them:

| IC50 | Structure (SMILES) |
| --- | --- |
| < 100 nM | CC(Oc1cc(-n2cnc3cc(-c4cnn(C)c4)ccc32)sc1C(N)=O)c1cccc(OC2CCNCC2)c1F (racemic) [Example 75, (+/−)-3-({1-[2-Fluoro-3-(4-piperidinyloxy)phenyl]ethyl}oxy)-5-[5-(1-methyl-1H-pyrazol-4-yl)-1H-benzimidazol-1-yl]-2-thiophenecarboxamide] |
| < 100 nM | CC(Oc1cc(-n2cnc3cc(-c4cnn(C)c4)ccc32)sc1C(N)=O)c1cccc(OC2CCN(C)CC2)c1F (racemic) [Example 76, (+/−)-3-[(1-{2-Fluoro-3-[(1-methyl-4-piperidinyl)oxy]phenyl}ethyl)oxy]-5-[5-(1-methyl-1H-pyrazol-4-yl)-1H-benzimidazol-1-yl]-2-thiophenecarboxamide] |
| 100 to 1000 nM | CC(Oc1cc(-n2cnc3cc(-c4cnn(C)c4)ccc32)sc1C(N)=O)c1ccnc(OC2CCNCC2)n1 (racemic) [Example 77, (+/−)-5-[5-(1-Methyl-1H -pyrazol-4-yl)-1H-benzimidazol-1-yl]-3-({1-[2-(4-piperidinyloxy)-4-pyrimidinyl]ethyl}oxy)-2-thiophenecarboxamide] |
| 100 to 1000 nM | CC(Oc1cc(-n2cnc3cc(-c4cnn(C)c4)ccc32)sc1C(N)=O)c1ccnc(OC2CCN(C)CC2)n1 (racemic) [Example 78, (+/−)-3-[(1-{2-[(1-methyl-4-piperidinyl)oxy]-4-pyrimidinyl}ethyl)oxy]-5-[5-(1-methyl-1H-pyrazol-4-yl)-1H-benzimidazol-1-yl]-2-thiophenecarboxamide] |
| < 100 nM | CC(Oc1cc(-n2cnc3cc(-c4cnn(C)c4)ccc32)sc1C(N)=O)c1ccnc(OC2CCNCC2)c1 (racemic) [Example 79, (+/−)-5-[5-(1-Methyl-1H-pyrazol-4-yl)-1H-benzimidazol-1-yl]-3-({1-[2-(4-piperidinyloxy)-4-pyridinyl]ethyl}oxy)-2-thiophenecarboxamide] |
| < 100 nM | CC(Oc1cc(-n2cnc3cc(-c4cnn(C)c4)ccc32)sc1C(N)=O)c1cccc(OC2CCNCC2)n1 (racemic) [Example 81, (+/−)-5-[5-(1-Methyl-1H-pyrazol-4-yl)-1H-benzimidazol-1-yl]-3-({1-[6-(4-piperidinyloxy)-2-pyridinyl]ethyl}oxy)-2-thiophenecarboxamide] |
| < 100 nM | CC(Oc1cc(-n2cnc3cc(-c4cnn(C)c4)ccc32)sc1C(N)=O)c1cccc(OC2CCN(C)CC2)n1 (racemic) [Example 82, (+/−)-3-[(1-{6-[(1-Methyl-4-piperidinyl)oxy]-2-pyridinyl}ethyl)oxy]-5-[5-(1-methyl-1H-pyrazol-4-yl)-1H-benzimidazol-1-yl]-2-thiophenecarboxamide] |
